In PubChem BioAssay AID1159564 (GlaxoSmithKline (GSK), 2015):
pIC50: −log10 of the molar value. Active and inactive are the calls of the source. The rule behind the calls is not given here.

System: L. donovani-infected THP-1 macrophages, intracellular amastigote imaging
Test: antileishmanial activity in infected THP-1 macrophages – imaging, THP-1 host macrophages, host toxicity (AID 1159564)
[1] = measured here: THP-1 host cell toxicity
[2] = measured here: amastigotes per macrophage

SMILES | pIC50 | pIC50 [1] | pIC50 [2] | IC50
C=CC[C@@H]1CC=C[C@@H](C)N1C(=O)CCc1nnc(-c2ccc3c(c2)OCO3)o1 | 5.10 | 4.89 | 5.49 | 
Cc1cc(Nc2cc(C3CC3)[nH]n2)nc(N2CCCC2)n1 | 6.80 | 6.89 | 7.30 | 
CCCCc1cc(Nc2cc(C3CCC3)[nH]n2)nc(N2CCC2C(N)=O)n1 (centres undefined) | 5.70 | 6.00 | 6.20 | 
Cc1nc(-c2ccc3c(c2)OCO3)sc1C(=O)NCc1ccc2c(c1)OCO2 | 6.60 | < 4.30 | 6.10 | 
COc1ccc(C(=O)N2CCC(Nc3cccnc3)C2)c(OC)n1 (centres undefined) |  | < 4.30 | < 4.30 | > 50 µM (inactive)
Cc1ccc2ccc(C(Nc3ccccn3)c3cccnc3)c(O)c2n1 (centres undefined) | 4.89 | < 4.30 | 5.10 | 
COc1cccc2sc(CN(C)C(=O)C3CNCCN3c3ccc(F)cc3)c(C)c12 (centres undefined) | 5.20 | 4.89 | 5.40 | 
COc1ccc(S(=O)(=O)NCc2ccc(-c3ccc(CN(C)CCO)cc3)cc2)cc1 | 4.80 | 4.70 | 4.70 | 
COc1ccc2ncc(F)c(NC(=O)C3(O)CCC(NCc4ccc5c(c4)OCCO5)CC3)c2n1 (centres undefined) | 4.49 | 4.70 | 4.80 | 
O=S(=O)(c1cccc(CSc2nnc(-c3ccc4c(c3)OCO4)o2)c1)N1CCOCC1 | 6.10 | < 4.30 | 6.60 | 
CS(=O)(=O)c1ccc(CC(=O)Nc2nc(-c3ccc(Cl)s3)cs2)cc1 |  | 4.80 | < 4.30 | > 50 µM (inactive)
O=C(CN(Cc1ccccn1)Cc1ccccn1)NCc1csc(-c2cccs2)n1 | 5.20 | < 4.30 | 5.49 | 
Cc1c([N+](=O)[O-])c(C(=O)Nc2sc3c(c2C#N)CCC(C)C3)nn1C (centres undefined) | 4.49 | < 4.30 | 4.80 | 
O=C1CCCCCC1(Cc1cnc[nH]1)c1ccc(Cl)cc1Cl (centres undefined) |  | < 4.30 | 5.20 | > 50 µM (inactive)
Cn1cncc1CN1CCC2(CC1)COC(Cc1ccccc1)C2 (centres undefined) |  | < 4.30 |  | > 50 µM (inactive)
O=C1c2cnc(N3CCCC3)nc2CN1c1ccc2c(c1)OCO2 | 5.00 | < 4.30 | 5.20 | 
c1ccc(-c2nc(NC3CCCC3)c3ccccc3n2)nc1 | 5.70 | 4.70 | 5.89 | 
COc1ccccc1-c1c(C)[nH]c2nc(N)nc(C)c12 | 4.60 | < 4.30 | 4.80 | 
CNC(=O)C1Cc2ccccc2N1C(=O)Cc1ccc(F)cc1 (centres undefined) |  | < 4.30 | < 4.30 | > 50 µM (inactive)
CC(C)c1cc(Nc2cc(Cc3ccccc3)nc(NC3CCC(O)CC3)n2)n[nH]1 (centres undefined) | 7.20 | 7.70 | 7.40 | 
Cc1ccc(NC(=O)c2ccc([N+](=O)[O-])s2)cc1S(=O)(=O)N1CCOCC1 | 5.49 | 4.40 | 5.70 | 
CCCCNc1nccc(-c2c(-c3ccc(F)cc3)nn3c(N4CCOCC4)cccc23)n1 | 5.20 | 4.89 | < 4.30 | 
O=C(c1ccc(O)c(Cl)c1)N1CCN(c2cnccn2)CC1 | 5.30 | < 4.30 | 5.49 | 
c1ccc(CNc2cccc3ccncc23)cc1 | 5.10 | 4.30 | 5.30 | 
COc1ccc(OC)c(S(=O)(=O)N(Cc2c(F)cccc2F)[C@@H]2CCN(C#N)C2)c1 | 4.60 | 4.70 | 4.70 | 

SMILES | pIC50 | pIC50 [1] | pIC50 [2] | IC50
COc1ccccc1-n1c(SCC(=O)Nc2ccc3c(c2)OCO3)nc2c(c1=O)SCC2 | 5.10 | < 4.30 | 5.30 | 
COc1cccc(S(=O)(=O)Nc2ccc3c(c2)CC(N2CCC(NC(=O)C4CC4)CC2)C3)c1 (centres undefined) |  | < 4.30 | 4.60 | > 50 µM (inactive)
COc1cc2c(cc1OC)[C@H]1[C@@H](C)c3ccc(OC)c(OC)c3CN1CC2 | 4.70 | < 4.30 | 4.80 | 
Cn1nc([N+](=O)[O-])nc1N1CCCCC1 |  | < 4.30 | < 4.30 | > 50 µM (inactive)
Cc1ncsc1CNc1cnc(-c2ccc3c(c2)OCCO3)c(-c2cnn(C)c2)c1 | 4.80 | 4.80 | 4.89 | 
CC(=O)Nc1nc(-c2cc(C)ccc2C)c(C)s1 |  | < 4.30 | 4.49 | > 50 µM (inactive)
NC(=O)c1cc(F)ccc1Nc1nc(NC2CCC(O)CC2)ncc1Br (centres undefined) | 6.10 | 6.40 | 6.20 | 
Clc1ccc(Sc2cnccc2N2CCOCC2)cc1 |  | < 4.30 | 5.00 | > 50 µM (inactive)
CC(=O)Nc1ccc(-c2csc(NC(=O)c3ccc([N+](=O)[O-])s3)n2)cc1 | 6.00 | 4.89 | 6.10 | 
O=C(Nc1nc(-c2ccc(S(=O)(=O)N3CCOCC3)cc2)cs1)c1ccc([N+](=O)[O-])cc1 |  | 5.40 | 5.60 | > 50 µM (inactive)
Cc1ccnc(NS(=O)(=O)c2ccc(NC(=O)c3ccc([N+](=O)[O-])s3)cc2)n1 | 5.00 | 5.00 | 5.30 | 
CC1CN(Cc2ccc(C#N)cc2)CCN1c1ccc(NC(=O)c2ccccc2F)cc1 (centres undefined) | 5.00 | < 4.30 | 5.30 | 
O=C(COc1ccccc1)Nc1ccccc1C(=O)Nc1nccs1 |  | 5.10 | < 4.30 | > 50 µM (inactive)
O=C(NCC(c1cccs1)N1CCOCC1)c1ccc([N+](=O)[O-])o1 (centres undefined) | 4.60 | 4.60 | 4.80 | 
O=C1OCc2ccc(Nc3nccc(-c4cnn5ncccc45)n3)cc21 | 7.80 | 8.10 | 7.89 | 
COc1ccc(C(=O)Nc2cc(C(F)(F)F)ccc2N2CCOCC2)c(OC)c1 | 5.00 | 4.89 | 5.10 | 
COc1ccc2ncc(=O)n(CCN3CCC(NCc4ccc(-c5cccs5)cc4)CC3)c2n1 | 5.49 | 5.00 | 5.89 | 
O=c1[nH]c(NCCCNCc2cc(Br)cc(Br)c2)nc2ccsc12 | 5.30 | 4.80 | 5.60 | 
NCc1csc(Nc2cc(Oc3ccccc3)ncn2)n1 | 4.60 | < 4.30 | 4.60 | 
Clc1ccc(CN2CCN(C3=NCCN3)CC2)cc1Cl |  | < 4.30 | < 4.30 | > 50 µM (inactive)
CC(C)(C)C(=O)Nc1cc(C2CC2)nn1-c1nc2c(c(=O)[nH]1)CCCC2 | 5.30 | 5.10 | 5.70 | 
COc1ccc(S(=O)(=O)Nc2ccc(CN3CCN(C(=O)c4cccc(C#N)c4)CC3)cc2)cc1 |  | < 4.30 | < 4.30 | > 50 µM (inactive)
CC(=O)Nc1ccc(Nc2nccc(-c3cnn4ncccc34)n2)cc1C(F)(F)F | 7.60 | 8.00 | 7.80 | 
COc1ccc2nccc([C@H](O)CN3CC[C@H](NC(=O)c4ccc(Br)cc4)[C@@H](O)C3)c2n1 |  | < 4.30 | < 4.30 | > 50 µM (inactive)
O=C(Cc1ccc2c(c1)CCC2)Nc1n[nH]c(-c2ccccn2)n1 | 5.20 | < 4.30 | 5.20 | 
